{"source": "a melting point compilation (Tetko et al.)"}
{"units": {"melting point": "°C"}}
{"smiles": "Cn1cc(C=CC(=O)O)c2ccccc21", "melting point": "139 to 141"}
{"smiles": "CC1(c2cccc3ccccc23)NC(=O)NC1=O", "note": "(configuration not stated)", "melting point": "105 to 107"}
{"smiles": "O=C(O)CCS(=O)c1ccc2c(c1)OCCO2", "note": "(configuration not stated)", "melting point": "110 to 112"}
{"smiles": "CCc1cccc2c(CC(=O)O)c[nH]c12", "melting point": "175 to 177"}
{"smiles": "O=C(O)c1noc(-c2ccccc2)n1", "melting point": "111 to 113"}
{"smiles": "CS(=O)(=O)c1ccccc1NC(=O)CCl", "melting point": "118 to 120"}
{"smiles": "COc1cccc(-c2c[nH]cc2C(=O)O)c1", "melting point": "143 to 145"}
{"smiles": "COC(=O)CNc1cccc(F)c1", "melting point": "65 to 67"}
{"smiles": "NC(=S)Nc1ccccc1Oc1ccccc1", "melting point": "125 to 127"}
{"smiles": "COc1ccccc1-c1nnc(S)n1CCc1ccccc1", "melting point": "87 to 89"}
{"smiles": "COc1ccc(OC)c(C(F)(F)C(=O)O)c1", "melting point": "81 to 83"}
{"smiles": "NC(=O)c1coc(Br)c1", "melting point": "165 to 167"}
{"smiles": "Cc1ccc(OCC2CCCO2)c(S(=O)(=O)Cl)c1", "note": "(configuration not stated)", "melting point": "76 to 78"}
{"smiles": "CCOC(=O)c1sc2cc(Cl)ccc2c1Cl", "melting point": "75 to 77"}
{"smiles": "CC(C)N(CCC(=O)O)C(=O)OC(C)(C)C", "melting point": "65 to 67"}
{"smiles": "CS(=O)(=O)C1CSCCN1", "note": "(configuration not stated)", "melting point": "115 to 117"}
{"smiles": "Nc1nnc(CCCc2ccccc2)o1", "melting point": "165 to 167"}
{"smiles": "O=Cc1ccnc(-c2ccccc2)n1", "melting point": "116 to 118"}
{"smiles": "CC(C)(C)OC(=O)NCC1CCCCS1(=O)=O", "note": "(configuration not stated)", "melting point": "97 to 99"}
{"smiles": "Nc1ncc(C(=O)O)cc1Cl", "melting point": "338 to 340"}
{"smiles": "Nc1cccc(I)c1C(=O)O", "melting point": "130 to 132"}
{"smiles": "CCOc1ccc(Cl)cc1C(C)=O", "melting point": "79 to 81"}
{"smiles": "OCc1ccc(OCC(F)(F)F)cc1", "melting point": "64 to 66"}
{"smiles": "Nc1c(C(=O)O)ccc(Cl)c1Cl", "melting point": "235 to 237"}
{"smiles": "OCc1nnc(-c2ccccc2Cl)o1", "melting point": "101 to 103"}
{"smiles": "CC1(C)C2CCC1(CS(=O)(=O)F)C(=O)C2", "note": "(configuration not stated)", "melting point": "79 to 81"}
{"smiles": "CCOc1ccc(C=CCN)cc1", "melting point": "46 to 48"}
{"smiles": "O=C(O)c1ccc(-c2cccc(C(F)(F)F)c2)cc1F", "melting point": "208 to 210"}
{"smiles": "CC1Oc2c(ccc(Cl)c2Cl)C1=O", "note": "(configuration not stated)", "melting point": "99 to 101"}
{"smiles": "COC(=O)C1(C)CCc2ccccc2C1=O", "note": "(configuration not stated)", "melting point": "56 to 58"}
{"smiles": "Cc1noc(C)c1CSCC(=O)O", "melting point": "92 to 94"}
{"smiles": "CC(C)NC(CCO)C1CCCCC1", "note": "(configuration not stated)", "melting point": "35 to 37"}
{"smiles": "CC(C)(C)OC(=O)CC(C)(C#N)C(=O)O", "note": "(configuration not stated)", "melting point": "89 to 91"}
{"smiles": "CS(=O)(=O)Cc1nc(=N)o[nH]1", "melting point": "158 to 160"}
{"smiles": "O=C(Nc1ccccc1C(=O)O)c1ccccc1", "melting point": "178 to 182"}
{"smiles": "O=C1CC(c2ccccc2)=NN1c1ccccc1Br", "melting point": "183 to 185"}
{"smiles": "CC(C)Cn1c(S)nc2cc(Cl)ccc2c1=O", "melting point": "221 to 223"}
{"smiles": "CC1(c2cccc(Cl)c2)NC(=O)NC1=O", "note": "(configuration not stated)", "melting point": "200 to 202"}
{"smiles": "N#CCCNC(=O)CCl", "melting point": "96 to 98"}
{"smiles": "CCNC(=O)c1ccc(O)cc1", "melting point": "109 to 111"}
{"smiles": "CNc1ncc(I)cn1", "melting point": "134 to 136"}
{"smiles": "Cc1ccn2c(C(=O)O)cnc2c1", "melting point": "159 to 161"}
{"smiles": "O=C(O)c1cn2cccnc2n1", "melting point": "255 to 257"}
{"smiles": "CCOc1ccc(Br)cc1S(=O)(=O)Cl", "melting point": "109 to 111"}
{"smiles": "CN(C)c1cncc(Cl)n1", "melting point": "44 to 46"}
{"smiles": "CNC(CCO)c1ccccc1", "note": "(configuration not stated)", "melting point": "56 to 58"}
{"smiles": "O=CN1CCc2cc(C(=O)CCl)ccc21", "melting point": "146 to 148"}
{"smiles": "CCCOc1cccc(C(=O)O)c1", "melting point": "73 to 75"}
{"smiles": "NS(=O)(=O)Cc1ccon1", "melting point": "106 to 108"}
{"smiles": "O=C1COc2ccc(C(=O)CBr)cc2N1", "melting point": "190 to 192"}
{"smiles": "N#Cc1cccnc1Oc1ccc(N)cc1", "melting point": "152 to 154"}
{"smiles": "CC(NC(=O)OC(C)(C)C)C1CCNCC1", "note": "(configuration not stated)", "melting point": "103 to 105"}
{"smiles": "O=C(O)c1cc(S(=O)(=O)Cl)c(F)cc1Br", "melting point": "148 to 150"}
{"smiles": "COC(=O)c1ccc(NC(=O)Oc2ccccc2)cc1", "melting point": "185 to 187"}
{"smiles": "CCC1(C(=O)O)CCN(C(=O)c2ccccc2)CC1", "melting point": "154 to 156"}
{"smiles": "Cc1c(Br)cccc1S(=O)(=O)Cl", "melting point": "64 to 66"}
{"smiles": "Nc1ccccc1C(=O)Nc1ccc(Cl)cc1", "melting point": "44 to 45"}
{"smiles": "CC(C)(C#N)Cc1ccccc1", "melting point": "47 to 49"}
{"smiles": "Cc1nc(-c2ccncc2)nc(O)c1C", "melting point": "256 to 258"}
{"smiles": "Nc1[nH]nc(-c2ccsc2)c1-c1ccc2c(c1)OCO2", "melting point": "79 to 81"}
{"smiles": "NC(=S)CN1C(=O)c2ccccc2C1=O", "melting point": "173 to 175"}
{"smiles": "O=[N+]([O-])c1cccc(-c2cn[nH]c2)c1", "melting point": "154 to 156"}
{"smiles": "O=C1NC(=O)c2cc(Cl)c(Cl)cc21", "melting point": "217 to 219"}
{"smiles": "COC(=O)c1c[nH]c(C2CC2)n1", "melting point": "119 to 121"}
{"smiles": "COc1ccc(NC(=O)c2ccc(Br)cc2)c(C)c1", "melting point": "164 to 166"}
{"smiles": "Cc1ccc(-n2nc(C)cc2N)nn1", "melting point": "119 to 121"}
{"smiles": "CC(=O)C(C#N)c1c(F)cccc1Cl", "note": "(configuration not stated)", "melting point": "100 to 102"}
{"smiles": "CCOC(=O)c1c(NC(=O)CCl)sc(C)c1CC", "melting point": "97 to 99"}
{"smiles": "Cc1c(N)cccc1C(N)=O", "melting point": "173 to 175"}
{"smiles": "O=C(O)c1ccc(Sc2ccc(Cl)cc2)o1", "melting point": "161 to 163"}
{"smiles": "CN(C(=O)c1ccccc1N)C1CCCCC1", "melting point": "141 to 143"}
{"smiles": "Cn1c(S)nnc1CO", "melting point": "189 to 191"}
